# Source: patent EP4653017A1, “ANTIBODY-DRUG CONJUGATE AND USE THEREOF” (Tyligand Bioscience (Shanghai) Limited, priority 2023, dated 2024)
# Structures can show the parent of a compound that is named as a salt.
# What was measured:
# [1] = tested on: A20; experiment: Inhibition of tumor cell line proliferation (Table 3), A20; assay type: cell-based; conditions: A20, Mouse B lymphoma cells
# [2] = tested on: Daudi; experiment: Inhibition of tumor cell line proliferation (Table 3), Daudi; assay type: cell-based; conditions: Human Burkitt's lymphoma cells
# [3] = tested on: MC38; experiment: Inhibition of tumor cell line proliferation (Table 3), MC38; assay type: cell-based; conditions: MC-38; MC38, Mouse colon cancer cells
# [4] = tested on: H22; experiment: Inhibition of tumor cell line proliferation (Table 3), H22; assay type: cell-based; conditions: H22, Mouse hepatoma cells
# [5] = tested on: B16F10; experiment: Inhibition of tumor cell line proliferation (Table 3), B16F10; assay type: cell-based; conditions: B16-F10; B16F10, Mouse melanoma cells
# [6] = tested on: lymphoma Raji-hClaudin 18.2 cells; experiment: Inhibition of Raji-hClaudin 18.2 cell proliferation (CTG assay); assay type: cell-based
# Experimental: Raji-hClaudin 18.2 cells (provided by Elpiscience) were cultured at 37°C, 5% CO2 and 95% humidity in RPMI 1640 + 10% FBS (ExCell Bio, Cat. No. #FND500) + 10 ug/mL Blasticidin (Beyotime, Cat. No. #ST-018), the cells in logarithmic growth phase were harvested and counted, and cell viability was measured using Countstar automated cell counter based on classical trypan blue staining principle to ensure that the cell viability was above 90%. The cell concentration was adjusted, 135 µL of cell suspension was added into 96 well clear flat bottom black wall plate (Corning, Cat. No. #3904), 10000/well, and the cells were incubated in 96 well plate at 37°C and 5% CO2.
# The cells in the 96 well plates that had been dosed were incubated at 37°C, 5% CO2 for 5 days before performing CTG assay. The plate was equilibrated to room temperature for 30 min and CTG Reagent (CellTiter-Glo® Luminescent Cell Viability Assay (Promega, Cat. No. #G7573) was melt, 50 µL of CTG Solution was added to each well, and shaked on an orbital shaker for 2 min to lyse the cells. The plate was left at room temperature for 10 min to stabilize the cold light signal and the cold light value was read (EnVision ® Multifunctional Plate Reader, PerkinElmer#2105). [formula] […]
# [7] = tested on: CT26 cells; experiment: Inhibition of CT26 cell proliferation (CellTiter-Glo); assay type: cell-based, mouse
# Experimental: CT26 cells are a mouse colorectal cancer cell line. In this experiment, CellTiter-Glo Luminescence Cell Viability Assay kit from Promega was used to assess the inhibitory activity of the compounds on CT26 cell proliferation.
# When CT26 cells (ATCC #CRL-2638) were revived, the cryovial was rapid shaken in a 37°C water bath to thaw with 1 min. The thawed cell suspension was mixed well with DMEM medium (GE Company, Cat. No. #SH30243.01) containing 10% FBS (GIBCO, Cat. No. #10099-141), centrifuged at 1000 rpm for 5 min, and the supernatant was discarded. The cell pellet was resuspended in 5 mL of complete medium (DMEM medium containing 10% FBS), placed in a cell culture flask with a bottom area of 25 cm^2, and cultured in a cell incubator at 37°C, 5% CO2, and 95% humidity. Passage was performed when the confluence rate of cells reached 70%~80%. Referring to the cell passage method at plating, all cells in the flask were transferred to a 15 mL centrifuge tube, centrifuged at 1000 rpm for 5 minutes, and the supernatant was discarded. The cell pellet was resuspended in 5 mL of new complete medium, 1 mL was placed in a cell culture flask with a bottom area of 25 cm^2, and 4 mL of fresh complete medium was added to continue the culture. Plating was performed when the cell confluence rate of cells reached 70% to 80% again. Referring to the cell passage method at plating, 1/5 of the cell suspension was maintained and the remaining 4/5 of the cell suspension was placed in a 15 mL centrifuge tube. The cells were centrifuged, the old medium was discarded, the cells was washed once with DMEM medium (without serum), and centrifuged to remove the supernatant. Cells were resuspended with DMEM medium (without serum). […]. A cell suspension at a density of 1.1 x 10^4 viable cells/mL was prepared using DMEM medium (without serum) and 90 µL of the cell suspension was added to 96-well clear flat-bottom black-walled cell culture plate wells (Corning, Cat. No. #3603) to yield a cell density of 1000 viable cells/well in the plate. A control group without cells, without compounds, and with complete medium only (i.e., culture medium control) was set up, and a control group without compounds and with cells (i.e., cell control) was set up. The plates were incubated overnight in a cell incubator.
# A DMSO stock solution of 10 mM compound was first serially diluted at a 3.16-fold dilution ratio with DMSO (Sigma, Cat. No. #D2650) to a ninth concentration and a tenth concentration of DMSO control without compound was set. DMSO solutions containing different concentrations of the compound were then diluted a 10-fold dilution ratio with PBS (Solarbio company, Cat. No. #P1020) to achieve a DMSO content of 10% in each concentration of the compound solution. Finally, 10 µL of the above solution was added to the corresponding cell culture plate to achieve a starting concentration of 100 µM compound, a 3.16-fold dilution ratio of adjacent concentrations, and a DMSO content of 1% in the cell culture plate. The plates were maintained in a cell incubator for an additional 120 hours.
# After 120 hours, the CellTiter-Glo reagent (Promega, Cat. No. #G7572) was thawed and the plate was equilibrated at room temperature for 30 min. Then, 100 µL CellTiter-Glo was added to each well of the plate and shaken on an orbital shaker for 5 min to fully lyse the cells. The plate was placed at room temperature for 20 min to stabilize the cold light signal, and the cold light value of each well was scanned with a multifunctional microplate reader (Molecular Devices, Spectramax M3) at full wavelength.
# The compound of the present invention and ADU-S100 (MCE, Cat. No. #HY12885A) were used as controls: Clofarabine (Wuhu Huaren Technology, Cat. No. #HR-00701002), Cladribine (CSNpharm, Cat. No. #CSN10004), Gemcitabine Hydrochloride (Shaoyuan, Cat. No. #SY014538), Gemcitabine Prodrug LY2334737 (home-made). […]
# [8] = tested on: FaDu; experiment: Inhibition of tumor cell line proliferation (Table 3), FaDu; assay type: cell-based; conditions: Human pharyngeal squamous carcinoma cell
smiles,measurement,setting,value
"Nc1nc2c(ncn2[C@@H]2O[C@@H]3CO[P@@](=O)(S)O[C@H]4[C@H](F)[C@H](n5cnc6c(N)nc(Cl)nc65)O[C@@H]4CO[P@@](=O)(S)O[C@@H]2[C@@H]3O)c(=O)[nH]1 [CDN-3, (2',3')-cyclo-(Rp,Rp)-[2'-O-thiophosphodiester-guanosine]-[3'-O-thiophosphodiester-2-chloro-2'-deoxy-2'-fluoro-beta-adenosine]diammonium salt]",IC50,[1],32 nM
same,IC50,[2],423 nM
same,IC50,[3],1020 nM
same,IC50,[4],982 nM
same,IC50,[5],8700 nM
same,inhibition effects on Raji-hClaudin 18.2 cell proliferation (in words),[6],strong inhibition effects
same,IC50,"[6]; 120 h, Raji-hClaudin 18.2, 5 days incubation, top concentration 600 nM",131 nM
same,IC50,"[7]; Mus musculus, CT26, 120 h, read-out: CT-26 activity",< 1000 nM
same,inhibitory ability on growth of CT26 tumor cells in vitro (in words),[7]; superior to ADU-S100,particularly significant inhibitory ability
same,IC50,[8],499 nM
